The values below come from patent publication US11286252B2, “Alkene spirocyclic compounds as farnesoid X receptor modulators” (BRISTOL-MYERS SQUIBB COMPANY, priority 2017, dated 2022).

For this experiment, the target named is T1, human FXR (Homo sapiens, UniProt Q96RI1).
T1 construct: expressed in transfected cells; host or cells: HEK293 cells stably carrying a 5xGal4-response-element firefly luciferase reporter, transiently transfected with pcDNA3.1-Gal4-FXR
T1 sequence (Q96RI1 262-486 limits assumed): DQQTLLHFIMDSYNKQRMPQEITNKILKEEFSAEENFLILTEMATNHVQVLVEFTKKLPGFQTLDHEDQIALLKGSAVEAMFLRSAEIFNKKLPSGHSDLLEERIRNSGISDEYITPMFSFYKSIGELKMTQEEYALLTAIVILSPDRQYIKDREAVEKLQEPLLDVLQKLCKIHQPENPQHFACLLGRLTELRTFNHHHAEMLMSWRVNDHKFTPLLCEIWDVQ
The experiment is described as follows: transient human FXR/Gal4-luciferase reporter assay. It counts as cell-based. The note with it: Gal4-hFXR fusion construct, luciferase reporter HEK293 cells; response relative to 8 μM GW-4064; unit inferred. Here is the method:
The exemplified compounds of the present invention were tested in the transient human FXR/Gal4-luciferase reporter assay, and assay results were reported in Table 1 and Examples 1 to 3 together with other analytical data.
A Gal4-hFXR fusion construct reporter system was used as the primary assay to characterize compound activity. A construct including 5 copies of the Gal4 promoter response element upstream of a firefly luciferase reporter cDNA was stably expressed in HEK293 cells. This reporter cell line was maintained in Dulbecco's Modified Eagle's medium (DMEM; Gibco) supplemented with 1% penicillin-streptomycin (P/S) solution, 500 μg/mL Zeocin and 10% charcoal/dextran-treated fetal bovine serum (cs-FBS) at 37° C. in a humidified 5% CO2 atmosphere. Another plasmid was constructed in which the human cytomegalovirus promoter in the pcDNA3.1 vector directs the expression of the cDNA encoding a fusion protein comprised of the DNA binding domain from the Gal4 transcription factor fused to the ligand binding domain from human FXR.
The day prior to transfection, the reporter cells in culture are detached from the plate with trypsin and plated into a T75 flask at a sufficient density to achieve approximately 90% confluence the next morning. The transfection reagents are prepared by separately diluting 25 μg of the pcDNA3.1-Gal4-FXR plasmid into 1.87 mL of Opti-MEM (Thermo-Fisher), and 40 μL of Lipofectamine 2000 (Thermo-Fisher) into 1.87 mL of Opti-MEM, and then adding the diluted DNA solution into the diluted Lipofectamine 2000 solution and incubating at room temperature for 15-20 minutes. The mixture is further diluted with 10 mL of a solution comprised of DMEM, 10% cs-FBS, and 1% P/S immediately prior to transferring to the cells. The maintenance culture media is aspirated from the cells and the final transfection mixture is added before the cells are incubated overnight at 37° C. in a humidified 5% CO2 atmosphere. This protocol can be scaled up, and the transiently transfected cells can be cryopreserved in an assay-ready format.
For compound testing, 100 nL of the compounds (serial dilutions in DMSO) are dispensed with an Echo acoustic dispenser (Labcyte) into the wells of a Corning/Costar clear bottom 384-well white plate. The transfected cells are harvested, counted, and diluted such that 10-25,000 cells in 25 μL are plated into each well of the 384-well compound assay plate. The compound-treated cells are incubated overnight at 37° C. in a humidified 5% CO2 atmosphere. The next morning 25 μL of Steady-Glo (Promega) are added to each well of the plate, the mixture is incubated for 15 min. with shaking, and luminescence is measured on an Envision (Perkin Elmer) plate reader. Background counts from cells treated with DMSO alone are subtracted from all raw counts, and the corrected values are converted to a percentage of the control response attained with 8 μM GW-4064.
Regarding `O=C(O)c1cc2ccc(OCC3CC4(CC(/C=C/c5c(-c6c(Cl)cncc6Cl)noc5C5CC5)C4)C3)cc2nn1` (centres unmarked) [Example 57], the EC50 (as a rule, the midpoint of the concentration-response curve) was determined as 75 nM.
`O=C(O)c1ncc(OCC2CC3(CC(/C=C/c4c(-c5c(Cl)cncc5Cl)noc4C4CC4)C3)C2)cc1OC1CCC1` (centres unmarked) [Example 58] had an EC50 of 22 nM.
Compound `Cc1c(OCC2CC3(CC(/C=C/c4c(-c5c(Cl)cncc5Cl)noc4C4CC4)C3)C2)nn(C(C)C)c1C(=O)O` (centres unmarked) [Example 59] yielded an EC50 of 85 nM.
Compound `O=C(O)c1cc(OCC2CC3(CC(/C=C/c4c(-c5c(Cl)cncc5Cl)noc4C4CC4)C3)C2)n(C2CC2)n1` (centres unmarked) [Example 60] gave an EC50 of 34 nM.
As to `O=C(O)c1ncc(OCC2CC3(CC(/C=C/c4c(-c5ccccc5C(F)(F)F)noc4C4CC4)C3)C2)cc1OC1CC1` (centres unmarked) [Example 61], the response was half-maximal at 16 nM (EC50).
To `O=C(O)c1ncc(OCC2CC3(CC(/C=C/c4c(-c5ccccc5C(F)(F)F)noc4C4CC4)C3)C2)cc1OC1CCC1` (centres unmarked) [Example 62] belongs 36 nM; to `NC(=O)c1ncc(OCC2CC3(CC(/C=C/c4c(-c5ccccc5C(F)(F)F)noc4C4CC4)C3)C2)cc1OC1CCC1` (centres unmarked) [Example 63], 393 nM; to `NC(=O)c1ncc(OCC2CC3(CC(/C=C/c4c(-c5ccccc5C(F)(F)F)noc4C4CC4)C3)C2)cc1OC1CC1` (centres unmarked) [Example 64], 667 nM.
To `NC(=O)c1ncc(OCC2CC3(CC(/C=C/c4c(-c5c(Cl)cncc5Cl)noc4C4CC4)C3)C2)cc1OC1CCC1` (centres unmarked) [Example 65] belongs 153 nM.
In turn, `CN1CCN(c2cc(C(=O)O)nc3ccc(OCC4CC5(CC(/C=C/c6c(-c7c(Cl)cncc7Cl)noc6C6CC6)C5)C4)cc23)CC1` (centres unmarked) [Example 66] displayed an EC50 of 188 nM.
To `CN1CCN(c2cc(C(=O)O)nc3ccc(OCC4CC5(CC(/C=C/c6c(-c7ccccc7C(F)(F)F)noc6C6CC6)C5)C4)cc23)CC1` (centres unmarked) [Example 67] belongs 302 nM.
